Measurements taken from PubChem BioAssay (NCI).
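Assay format: 96-well plates, 48-hour exposure. TGI marks complete inhibition of growth.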

How the values were obtained:
Experiment in all cases: growth of human tumour cells (NCI), 48 h
[1] = system: T-47D breast
[2] = system: HL-60(TB) leukemia
[3] = system: PC-3 prostate
[4] = system: SK-MEL-28 melanoma
[5] = system: U251 CNS
[6] = system: 786-0 renal
[7] = system: A549 NSCLC
[8] = system: UACC-62 melanoma
[9] = system: M14 melanoma
[10] = system: BT-549 breast
[11] = system: HCT-116 colon
[12] = system: KM12 colon
[13] = system: OVCAR-4 ovarian
[14] = system: HOP-92 NSCLC
[15] = system: NCI/ADR-RES ovarian
[16] = system: NCI-H460 lung
[17] = system: DU-145 prostate
[18] = system: IGROV1 ovarian
[19] = system: SN12C renal
[20] = system: OVCAR-5 ovarian
[21] = system: SF-295 CNS
[22] = system: EKVX NSCLC
[23] = system: SNB-75 CNS
[24] = system: HCT-15 colon
[25] = system: SR leukemia
[26] = system: OVCAR-3 ovarian
[27] = system: HOP-62 NSCLC
[28] = system: UACC-257 melanoma
[29] = system: NCI-H23 lung
[30] = system: OVCAR-8 ovarian
[31] = system: MCF7 breast
[32] = system: SK-OV-3 ovarian
[33] = system: HS 578T breast
[34] = system: MDA-MB-231 breast
[35] = system: COLO 205 colon
[36] = system: SF-268 CNS
[37] = system: HT29 colon
[38] = system: SF-539 CNS
[39] = system: ACHN renal
[40] = system: SK-MEL-2 melanoma
[41] = system: LOX IMVI melanoma
[42] = system: CAKI-1 renal
[43] = system: SK-MEL-5 melanoma
[44] = system: MALME-3M melanoma
[45] = system: MDA-N
[46] = system: SW-620 colon
[47] = system: NCI-H226 lung
[48] = system: NCI-H522 lung
[49] = system: MOLT-4 leukemia
[50] = system: HCC-2998 colon
[51] = system: SNB-19 CNS
[52] = system: MDA-MB-435
[53] = system: A498 renal
[54] = system: RPMI-8226 leukemia
[55] = system: RXF 393 renal
[56] = system: K-562 leukemia
[57] = system: UO-31 renal
[58] = system: TK-10 renal
[59] = system: CCRF-CEM leukemia

## COc1ccc(C2=C(N)c3cc(OC)ccc3C2=O)cc1
[1]
  TGI: > 100 µM
[2]
  TGI: > 100 µM
[3]
  TGI: > 100 µM
[4]
  TGI: > 100 µM
[5]
  TGI: > 100 µM
[6]
  TGI: > 100 µM
[7]
  TGI: > 100 µM
[8]
  TGI: > 100 µM
[9]
  TGI: > 100 µM
[10]
  TGI: > 100 µM
[11]
  TGI: > 100 µM
[12]
  TGI: > 100 µM
[13]
  TGI: > 100 µM
[14]
  TGI: > 100 µM
[15]
  TGI: > 100 µM
[16]
  TGI: > 100 µM
[17]
  TGI: > 100 µM
[18]
  TGI: > 100 µM
[19]
  TGI: > 100 µM
[20]
  TGI: > 100 µM
[21]
  TGI: > 100 µM
[22]
  TGI: > 100 µM
[23]
  TGI: > 100 µM
[24]
  TGI: > 100 µM
[25]
  TGI: > 100 µM
[26]
  TGI: > 100 µM
[27]
  TGI: > 100 µM
[28]
  TGI: > 100 µM
[29]
  TGI: > 100 µM
[30]
  TGI: > 100 µM
[31]
  TGI: > 100 µM
[32]
  TGI: > 100 µM
[33]
  TGI: 69.9 µM
[34]
  TGI: > 100 µM
[35]
  TGI: > 100 µM
[36]
  TGI: > 100 µM
[37]
  TGI: > 100 µM
[38]
  TGI: > 100 µM
[39]
  TGI: > 100 µM
[40]
  TGI: > 100 µM
[41]
  TGI: > 100 µM
[42]
  TGI: > 100 µM
[43]
  TGI: > 100 µM
[44]
  TGI: > 100 µM
[45]
  TGI: > 100 µM
[46]
  TGI: > 100 µM
[47]
  TGI: > 100 µM
[48]
  TGI: > 100 µM
[49]
  TGI: > 100 µM
[50]
  TGI: > 100 µM
[51]
  TGI: > 100 µM
[52]
  TGI: > 100 µM
[53]
  TGI: > 100 µM
[54]
  TGI: > 100 µM

## COC1OC2COC(c3ccccc3)OC2C(OC(=S)c2ccccc2)C1O (stereo unspecified)
[1]
  TGI: 59.5 µM
[3]
  TGI: 74.9 µM
[55]
  TGI: 36.9 µM
[4]
  TGI: > 100 µM
[5]
  TGI: 26.2 µM
[56]
  TGI: > 100 µM
[7]
  TGI: 33.7 µM
[8]
  TGI: > 100 µM
[9]
  TGI: > 100 µM
[10]
  TGI: > 100 µM
[13]
  TGI: > 100 µM
[57]
  TGI: > 100 µM
[14]
  TGI: > 100 µM
[15]
  TGI: 79 µM
[16]
  TGI: > 100 µM
[17]
  TGI: > 100 µM
[18]
  TGI: > 100 µM
[19]
  TGI: > 100 µM
[20]
  TGI: > 100 µM
[21]
  TGI: > 100 µM
[22]
  TGI: 5.82 µM
[24]
  TGI: > 100 µM
[25]
  TGI: > 100 µM
[26]
  TGI: > 100 µM
[27]
  TGI: 41.1 µM
[28]
  TGI: > 100 µM
[29]
  TGI: > 100 µM
[30]
  TGI: 39.3 µM
[31]
  TGI: > 100 µM
[32]
  TGI: 58.2 µM
[33]
  TGI: > 100 µM
[34]
  TGI: 78.1 µM
[35]
  TGI: > 100 µM
[36]
  TGI: > 100 µM
[37]
  TGI: > 100 µM
[58]
  TGI: > 100 µM
[38]
  TGI: 27.7 µM
[39]
  TGI: > 100 µM
[40]
  TGI: > 100 µM
[41]
  TGI: 20.5 µM
[59]
  TGI: > 100 µM
[42]
  TGI: > 100 µM
[43]
  TGI: > 100 µM
[44]
  TGI: > 100 µM
[45]
  TGI: > 100 µM
[46]
  TGI: > 100 µM
[47]
  TGI: > 100 µM
[49]
  TGI: > 100 µM
[51]
  TGI: > 100 µM
[52]
  TGI: 22.8 µM
[53]
  TGI: > 100 µM
[54]
  TGI: > 100 µM

## N#Cc1nc(-c2ccccn2)c(-c2ccccn2)nc1C#N
[1]
  TGI: 9.5 µM
[2]
  TGI: > 29.2 µM
[3]
  TGI: 19.7 µM
[55]
  TGI: 15.9 µM
[4]
  TGI: 45.6 µM
[5]
  TGI: > 37.3 µM
[6]
  TGI: 6.28 µM
[56]
  TGI: 19.4 µM
[7]
  TGI: 19.8 µM
[8]
  TGI: 5.1 µM
[9]
  TGI: 8.46 µM
[10]
  TGI: 12.1 µM
[11]
  TGI: 3.27 µM
[12]
  TGI: 11.6 µM
[13]
  TGI: 12.3 µM
[57]
  TGI: 5.64 µM
[14]
  TGI: > 45.6 µM
[15]
  TGI: 8.5 µM
[16]
  TGI: > 35.1 µM
[17]
  TGI: 12.7 µM
[18]
  TGI: 22.2 µM
[19]
  TGI: > 100 µM
[20]
  TGI: 10 µM
[21]
  TGI: 7.92 µM
[22]
  TGI: 15.7 µM
[23]
  TGI: 22.9 µM
[24]
  TGI: > 42 µM
[25]
  TGI: > 33.9 µM
[26]
  TGI: > 42.9 µM
[27]
  TGI: 17 µM
[28]
  TGI: 14.7 µM
[29]
  TGI: 16.7 µM
[30]
  TGI: 15.3 µM
[31]
  TGI: 28 µM
[32]
  TGI: 7.26 µM
[33]
  TGI: 29.1 µM
[34]
  TGI: > 53 µM
[35]
  TGI: 10.6 µM
[36]
  TGI: 7.12 µM
[37]
  TGI: 14.4 µM
[58]
  TGI: 17.3 µM
[38]
  TGI: 21.5 µM
[39]
  TGI: 7.95 µM
[40]
  TGI: 10.6 µM
[41]
  TGI: > 27.5 µM
[59]
  TGI: > 38.4 µM
[42]
  TGI: 6.81 µM
[43]
  TGI: > 36.5 µM
[45]
  TGI: > 100 µM
[46]
  TGI: > 43.5 µM
[47]
  TGI: 5.51 µM
[48]
  TGI: 16.6 µM
[49]
  TGI: > 30.6 µM
[50]
  TGI: 17.6 µM
[51]
  TGI: 22 µM
[52]
  TGI: 22.4 µM
[53]
  TGI: 8.19 µM
[54]
  TGI: > 100 µM

## COc1cc2c3c4[n+](cc2c(OC)c1OC)CCC4CCC3 (stereo unspecified)
[1]
  TGI: > 100 µM
[3]
  TGI: > 100 µM
[55]
  TGI: > 100 µM
[4]
  TGI: > 100 µM
[5]
  TGI: > 100 µM
[6]
  TGI: > 100 µM
[56]
  TGI: > 100 µM
[7]
  TGI: > 100 µM
[8]
  TGI: > 100 µM
[9]
  TGI: > 100 µM
[10]
  TGI: > 100 µM
[11]
  TGI: > 100 µM
[12]
  TGI: 99.5 µM
[13]
  TGI: > 100 µM
[57]
  TGI: > 100 µM
[14]
  TGI: > 100 µM
[15]
  TGI: > 100 µM
[16]
  TGI: > 100 µM
[17]
  TGI: > 100 µM
[18]
  TGI: > 100 µM
[19]
  TGI: > 100 µM
[20]
  TGI: > 100 µM
[21]
  TGI: > 100 µM
[22]
  TGI: > 100 µM
[24]
  TGI: > 100 µM
[25]
  TGI: > 100 µM
[26]
  TGI: > 100 µM
[27]
  TGI: > 100 µM
[28]
  TGI: > 100 µM
[29]
  TGI: > 100 µM
[30]
  TGI: > 100 µM
[31]
  TGI: > 100 µM
[32]
  TGI: > 100 µM
[33]
  TGI: > 100 µM
[34]
  TGI: > 100 µM
[35]
  TGI: > 84.7 µM
[36]
  TGI: > 100 µM
[37]
  TGI: > 100 µM
[58]
  TGI: > 100 µM
[38]
  TGI: > 100 µM
[39]
  TGI: > 100 µM
[40]
  TGI: > 100 µM
[41]
  TGI: > 100 µM
[59]
  TGI: > 100 µM
[42]
  TGI: > 100 µM
[43]
  TGI: > 53.3 µM
[44]
  TGI: > 65.8 µM
[45]
  TGI: > 100 µM
[46]
  TGI: > 100 µM
[47]
  TGI: > 100 µM
[48]
  TGI: > 100 µM
[49]
  TGI: > 100 µM
[50]
  TGI: > 100 µM
[51]
  TGI: > 100 µM
[52]
  TGI: > 100 µM
[53]
  TGI: > 100 µM
[54]
  TGI: > 100 µM
